According to BigSolDB 2.1:

Cc1cccc([N+](=O)[O-])c1N
solubility (mole fraction)
Conditions | in 1,4-dioxane | in acetone | in acetonitrile | in cyclohexane | in ethanol | in ethyl acetate | in isopropanol | in methanol | in n-propanol | in toluene
278.15 K | – | 0.113 | 0.0418 | – | 0.0102 | 0.0841 | 0.0086 | 0.00739 | 0.0108 | 0.0237
280.65 K | – | 0.122 | 0.0466 | – | 0.0112 | 0.0924 | 0.00945 | 0.00829 | 0.012 | 0.0267
283.15 K | 0.18 | 0.132 | 0.0529 | 0.00103 | 0.0125 | 0.101 | 0.0105 | 0.00916 | 0.0133 | 0.0301
285.65 K | 0.19 | 0.142 | 0.0589 | 0.00118 | 0.0139 | 0.11 | 0.0119 | 0.0102 | 0.0149 | 0.0336
288.15 K | 0.201 | 0.153 | 0.067 | 0.00136 | 0.0154 | 0.121 | 0.0133 | 0.0113 | 0.0165 | 0.0375
290.65 K | 0.211 | 0.165 | 0.0753 | 0.00158 | 0.017 | 0.131 | 0.0147 | 0.0124 | 0.0183 | 0.0417
293.15 K | 0.223 | 0.177 | 0.0844 | 0.00181 | 0.019 | 0.142 | 0.0163 | 0.014 | 0.0203 | 0.0469
295.65 K | 0.236 | 0.19 | 0.0954 | 0.00211 | 0.021 | 0.155 | 0.0183 | 0.0155 | 0.0225 | 0.0521
298.15 K | 0.249 | 0.203 | 0.106 | 0.00242 | 0.0233 | 0.168 | 0.0202 | 0.0172 | 0.0248 | 0.0581
300.65 K | 0.262 | 0.217 | 0.119 | 0.00279 | 0.0256 | 0.182 | 0.0225 | 0.0192 | 0.0275 | 0.0647
303.15 K | 0.277 | 0.233 | 0.133 | 0.00318 | 0.0284 | 0.196 | 0.0249 | 0.0212 | 0.0305 | 0.0719
305.65 K | 0.291 | 0.249 | 0.148 | 0.00369 | 0.0314 | 0.212 | 0.0277 | 0.0234 | 0.0336 | 0.0804
308.15 K | 0.306 | 0.265 | 0.165 | 0.00424 | 0.0346 | 0.228 | 0.0306 | 0.0261 | 0.0371 | 0.0893
310.65 K | 0.323 | 0.283 | 0.183 | 0.00489 | 0.0381 | 0.246 | 0.0339 | 0.0288 | 0.041 | 0.0993
313.15 K | 0.339 | 0.301 | 0.203 | 0.00562 | 0.042 | 0.265 | 0.0376 | 0.032 | 0.0451 | 0.11
